Data reported in patent US20220143053A1, “ANTI-MICROBIAL METHODS AND MATERIALS” (priority 2019, published 2022).
Converted amounts (≈) assume the structure as drawn. Where two headings read alike, the source gives them in different places.

What was measured:
[1] = tested on: methicillin-sensitive S. aureus; details: cited from earlier work
[2] = Drug solubility limit in growth medium; type: physicochemical; details: plasma or biological fluid
[3] = tested on: methicillin-sensitive Staphylococcus aureus (MSSA, ATCC 12600); assay: Minimum inhibitory concentration (MIC) test, CLSI M07-A10; type: cell-based
Protocol: (§1) Antibacterial activity of sodium channel blockers (lidocaine, bupivacaine, tetracaine, procaine, prilocaine), NSAIDs (ketorolac and tolfenamic acid), antioxidants (resveratrol and curcumin), and antibiotics (gentamicin and vancomycin) was performed against methicillin-sensitive Staphylococcus aureus (MSSA, ATCC 12600). The bacterial susceptibility tests were conducted as outlined in the Clinical and Laboratory Standard Institute (CLSI) protocol M07-A10. Bacterial suspensions with a concentration of approximately 5*10^5 CFU/ml were prepared in Lysogeny broth and mixed with the tested drugs. […] Minimum bactericidal concentration (MBC) was determined as the minimum concentration of the tested drug needed to kill 99.9% of bacteria (or 3−log 10 reduction). […] The MBC was measured for lidocaine, bupivacaine, ketorolac, and gentamicin.

[4] = tested on: Bacillus cereus, MSSA, MRSA, Escherichia coli, Klebsiella pneumoniae, Pseudomonas aeruginosa, Enterobacter aerogenes, and Salmonella Choleraesuis; details: eight listed bacteria; cited from earlier work
[5] = systemic administration; cited from earlier work
MSSA (ATCC 14775) = assay: Time-kill experiments; type: cell-based, Staphylococcus aureus; details: between 4 and 24 h
Protocol: Time-kill curves employing 3 time-points (0, 4, 24 hours) over the period of 24 hours were obtained for characterization of the antibacterial activity of selected combinations against MSSA (ATCC® 14775). Tested combinations of drugs were incubated with 5*10^5 CFU/ml of bacteria in Lysogeny broth at 37° C. At a given time-point, aliquots were collected, and bacterial concentrations were determined using the spread-plate method. The minimum accurately countable concentration was 10^2 CFU/ml. […] The increase of bacterial concentration represented antagonism.

[6] = tested on: methicillin-sensitive Staphylococcus aureus (MSSA, ATCC 12600); assay: Minimum bactericidal concentration (MBC) test; type: cell-based; details: MSSA ATCC 12600, kill 99.9% of bacteria
Protocol: as §1

[7] = Staphylococcus aureus, MSSA ATCC 12600, Lysogeny broth, 24-hour incubation at 37° C., read-out: MIC

Q: Which antibacterial effects [1] does the source give for `CCCCN1CCCCC1C(=O)Nc1c(C)cccc1C` (stereo not shown) [Bupivacaine] here?
A: Its antibacterial effects is “measurable antibacterial effects”.

Q: And the solubility [2]?
A: The solubility was ~15 mg/mL (≈ 52 mM).

Q: What about the MIC [3, 7] of the same compound?
A: Its MIC is 1880 µg/mL (≈ 6.5 mM).

Q: Which MIC [3, 7] does the source give for `COc1cc(/C=C/C(=O)CC(=O)/C=C/c2ccc(O)c(OC)c2)ccc1O` [Curcumin] here?
A: Its MIC is 188 µg/mL (≈ 0.509 mM).

Q: With `CC(C)Cc1ccc(C(C)C(=O)O)cc1` (stereo not shown) [Ibuprofen] as the compound, how does the antibacterial activity [4] read?
A: The antibacterial activity was “measurable antibacterial activity”.

Q: With `O=C(c1ccccc1)c1ccc2n1CCC2C(=O)O` (stereo not shown) [Ketorolac] as the compound, how does the solubility [2] read?
A: The solubility was ~18 mg/mL (≈ 70.5 mM).

Q: What about the MIC [3, 7] of the same compound?
A: The MIC was 3120 µg/mL (≈ 12.2 mM).

Q: For `CCN(CC)CC(=O)Nc1c(C)cccc1C` [Lidocaine], which antibacterial effects [1] is on record?
A: Its antibacterial effects is “measurable antibacterial effects”.

Q: And the MIC [3, 7]?
A: Its MIC is 15600 µg/mL (≈ 66.7 mM).

Q: For `CCCNC(C)C(=O)Nc1ccccc1C` (stereo not shown) [Prilocaine], which MIC [3, 7] is on record?
A: The MIC was 25000 µg/mL (≈ 113 mM).

Q: With `CCN(CC)CCOC(=O)c1ccc(N)cc1` [Procaine] as the compound, how does the MIC [3, 7] read?
A: The MIC was 100000 µg/mL (≈ 423 mM).

Q: For `Oc1ccc(C=Cc2cc(O)cc(O)c2)cc1` [Resveratrol], which MIC [3, 7] is on record?
A: The MIC was 125 µg/mL (≈ 0.548 mM).

Q: With `CCCCNc1ccc(C(=O)OCCN(C)C)cc1` [Tetracaine] as the compound, how does the MIC [3, 7] read?
A: The MIC was 938 µg/mL (≈ 3.55 mM).

Q: With `Cc1c(Cl)cccc1Nc1ccccc1C(=O)O` [Tolfenamic Acid] as the compound, how does the MIC [3, 7] read?
A: Its MIC is 250 µg/mL (≈ 0.955 mM).

Q: For `CN[C@H](CC(C)C)C(=O)N[C@H]1C(=O)N[C@@H](CC(N)=O)C(=O)N[C@H]2C(=O)N[C@H]3C(=O)N[C@H](C(=O)N[C@H](C(=O)O)c4cc(O)cc(O)c4-c4cc3ccc4O)[C@H](O)c3ccc(c(Cl)c3)Oc3cc2cc(c3O[C@@H]2O[C@H](CO)[C@@H](O)[C@H](O)[C@H]2O[C@H]2C[C@](C)(N)[C@H](O)[C@H](C)O2)Oc2ccc(cc2Cl)[C@H]1O` [Vancomycin], which “concentration in the bone relative to that in the serum” value [5] is on record?
A: The value was ~20%.

Q: And the MIC ([3]; Staphylococcus aureus, 24 h)?
A: The MIC was 0.625 µg/mL (≈ 0.000431 mM).

Q: Which antibacterial activity [4] does the source give for `CC(=O)Oc1ccccc1C(=O)O` [aspirin] here?
A: The antibacterial activity was “measurable antibacterial activity”.

Q: For `O=C(O)Cc1ccccc1Nc1c(Cl)cccc1Cl` [diclofenac], which antibacterial activity [4] is on record?
A: The antibacterial activity was “measurable antibacterial activity”.

Q: With `Cc1cccc(Nc2ccccc2C(=O)O)c1C` [mefenamic acid] as the compound, how does the antibacterial activity [4] read?
A: Its antibacterial activity is “measurable antibacterial activity”.

Q: Which results are given for Gentamicin?
A: regrowth in time-kill curves (MSSA (ATCC 14775)): regrowth phase; MIC ([3]; MSSA ATCC 12600, Lysogeny broth, 24-hour incubation at 37° C.): 4 µg/mL; MBC [6]: 2 µg/mL
